Source: US20250381194A1, “METHODS FOR MITIGATING THE EFFECTS OF LOW-LEVEL BLASTS THROUGH PHOSPHODIESTERASE-5 INHIBITION” (University of Kentucky Research Foundation, priority 2024, published 2025)
“Also recorded” adds a separate entry of the source.

Key:
[1] = test system: rat brain microvascular endothelial cells; experiment: Mitochondrial Network Analysis (MiNA) with mitotracker green in cell culture; type: cell-based; conditions: sildenafil 1 μM in 1% DMSO overnight vs vehicle
Source text: Mitochondrial Mechanisms Targeting mbTBI. […] Mitochondrial Network Analysis (MiNA) workflow in ImageJ was used to examine mitochondrial parameters.

[2] = test system: PGC-1α; experiment: Western blot for PGC-1α in cortical and hippocampal tissue seven days post-rmbTBI; type: in vivo, Sprague Dawley rats; conditions: vs rmbTBI vehicle; for PGC-1α expression in cortex tissue: rmbTBI (2 blasts, 24 h interval)
Source text: Blast Exposure. The MBD consists of a cylindrical steel tube, 12-inch internal diameter, separated into a 19-ft. expansion chamber and a 2.5-ft compression chamber. For these studies, compressed helium-driven mode was used to replicate military blast exposure. A 10-mil-thick (0.254 mm) biaxially-oriented polyethylene terephthalate (Mylar) membrane separates the two chambers. The Mylar membrane was actively ruptured by a 4-point blade affixed to a pneumatic cylinder to achieve desired static overpressure. The shock wave was recorded by face-on, reflected pressure (Kulite pitot-static pressure probe) and wall-mounted side-on static pressure sensors (Kulite). Data from each piezoresistive sensor was routed through sensor cables before being captured by the state-of-the-art TMX-18 (AstroNova™ Test & Measurement, 800 kHz sampling rate) and analyzed using AstroView. The rat subjects were secured in plastic netting to minimize but allow free body motion without neck flexion. The rat subjects were positioned 30 inches inside the tube and with lateral head exposure. An overpressure of 11 PSI was utilized, which is in the range where neurological disruption has been observed in operations involving breaching activity. In the studies underlying this example, Sprague Dawley rats were subjected to repeated blast exposure (2 blasts at 24 h interval). Tissue Isolation. For downstream western blot, whole brain homogenate was collected during brain capillary isolation and mixed with 10× RIPA buffer (150 mM NaCl, 1% Triton X-100, 0.5% sodium deoxycholate, 0.1% SDS, 50 mM Tris, pH 8.0) supplemented with protease inhibitors. The samples were snap-frozen in liquid nitrogen and stored at −80° C. until further use. Mitochondrial Biogenesis and Astrocyte Homeostasis. […] Expression of peroxisome proliferator-activated receptor gamma coactivator 1-alpha (PGC-1α), glial fibrillary acidic protein (GFAP), and β-actin was assessed in cortical tissue using western blot. Cortical tissue was extracted and probed seven days post-rmbTBI. Expression of PGC-1a and β-actin was also assessed using in the hippocampal tissue of subjects using western blot. Hippocampal tissue was extracted and probed seven-days post-rmbTBI.

[3] = test system: GFAP; experiment: Western blot for GFAP in cortical tissue seven days post-rmbTBI; type: in vivo, Sprague Dawley rats; conditions: rmbTBI (2 blasts, 24 h interval), vs rmbTBI vehicle
Source text: Blast Exposure. The MBD consists of a cylindrical steel tube, 12-inch internal diameter, separated into a 19-ft. expansion chamber and a 2.5-ft compression chamber. For these studies, compressed helium-driven mode was used to replicate military blast exposure. A 10-mil-thick (0.254 mm) biaxially-oriented polyethylene terephthalate (Mylar) membrane separates the two chambers. The Mylar membrane was actively ruptured by a 4-point blade affixed to a pneumatic cylinder to achieve desired static overpressure. The shock wave was recorded by face-on, reflected pressure (Kulite pitot-static pressure probe) and wall-mounted side-on static pressure sensors (Kulite). Data from each piezoresistive sensor was routed through sensor cables before being captured by the state-of-the-art TMX-18 (AstroNova™ Test & Measurement, 800 kHz sampling rate) and analyzed using AstroView. The rat subjects were secured in plastic netting to minimize but allow free body motion without neck flexion. The rat subjects were positioned 30 inches inside the tube and with lateral head exposure. […] Expression of peroxisome proliferator-activated receptor gamma coactivator 1-alpha (PGC-1α), glial fibrillary acidic protein (GFAP), and β-actin was assessed in cortical tissue using western blot. […] Expression of PGC-1a and β-actin was also assessed using in the hippocampal tissue of subjects using western blot. […]

[4] = test system: TOM20; experiment: Capillary-specific mitochondrial content (TOM20 staining) seven days post-rmbTBI; type: in vivo, Sprague Dawley rats; conditions: 20 mg/kg high dose daily to day seven, vs rmbTBI vehicle
Source text: (§1) Blast Exposure. The MBD consists of a cylindrical steel tube, 12-inch internal diameter, separated into a 19-ft. expansion chamber and a 2.5-ft compression chamber. For these studies, compressed helium-driven mode was used to replicate military blast exposure. A 10-mil-thick (0.254 mm) biaxially-oriented polyethylene terephthalate (Mylar) membrane separates the two chambers. The Mylar membrane was actively ruptured by a 4-point blade affixed to a pneumatic cylinder to achieve desired static overpressure. The shock wave was recorded by face-on, reflected pressure (Kulite pitot-static pressure probe) and wall-mounted side-on static pressure sensors (Kulite). Data from each piezoresistive sensor was routed through sensor cables before being captured by the state-of-the-art TMX-18 (AstroNova™ Test & Measurement, 800 kHz sampling rate) and analyzed using AstroView. The rat subjects were secured in plastic netting to minimize but allow free body motion without neck flexion. The rat subjects were positioned 30 inches inside the tube and with lateral head exposure. An overpressure of 11 PSI was utilized, which is in the range where neurological disruption has been observed in operations involving breaching activity. In the studies underlying this example, Sprague Dawley rats were subjected to repeated blast exposure (2 blasts at 24 h interval). Capillary Isolation. […]

[5] = test system: ZO-1; experiment: Tight junction integrity (ZO-1 immunostaining of cortical capillaries) seven days post-rmbTBI; type: in vivo, Sprague Dawley rats; conditions: 20 mg/kg high dose daily to day seven, vs rmbTBI vehicle
Source text: as §1

[6] = test system: mitochondrial volume and tight junction proteins in isolated brain capillaries; experiment: Correlation of capillary mitochondrial volume (OXPHOS) and ZO-1, chronic delayed sildenafil study; type: in vivo, Sprague Dawley rats; conditions: 20 mg/kg oral gavage daily from 2 to 5 months post-blast; brain capillaries at 5 months post-rmbTBI
Description: Brain Capillary Isolation and Immunostaining. Half frozen rat brain from all groups was homogenized with isolation buffer (pH7.4 DPBS containing 5.5 mM glucose, 1 mM sodium pyruvate, and 1% BSA). The homogenate was centrifuged at 1000×g for 10 min at 4° C. to remove the supernatant. […] After evaluating the quality and concentration of capillary suspension under a bright field microscope, which may contain small amount of large vessel and cells, the isolated capillary sample was ready for the immunostaining analysis. […]
The expression of ZO-1 was quantified by measuring the mean fluorescence intensity by tracing the capillary under NIS-Elements analysis software. The total capillary area was measured by using NIS-Elements. For mitochondrial volume, the OXPHOS fluorescence from Z-stack images was quantified using Imaris (X64 9.6.1) using surface creation tool. […]

[7] = test system: cerebral blood flow (CBF); experiment: MRI arterial spin labeling of cerebral blood flow, chronic delayed sildenafil study; type: in vivo, Sprague Dawley rats; conditions: 20 mg/kg daily, 2 and 4.5 months post-rmbTBI, between sham, rmbTBI+vehicle
Description: Animal Procedure. […] MRI (magnetic resonance imaging) was performed at 1.5 and 4.5 months post-blast. […] At the end of the experiment, rats were euthanized and the brain tissue was collected after transcardial perfusion with PBS (FIG. 24). One hemisphere of the brain was snap frozen with liquid nitrogen for brain capillary isolation while another hemisphere of the brain was fixed with 4% paraformaldehyde (PFA). After 48 hours of fixation, the brain tissue was placed into PBS containing 30% sucrose for 72 hours. The sucrose saturated brain tissue was flash frozen in-25 to −35° C. isopentane and stored at −20° C. or proceeded to sectioning.
Magnetic Resonance Imaging (MRI). MRI scanning was performed at 1.5 months and 4.5 months post-blast injury. Briefly, rats were placed under anesthesia with 4% isoflurane before placing it in the MRI scanner. Physiological monitoring was recorded every 10 min (with normal range 300-450 bpm) and rat body temperature was maintained while scanning under anesthesia. […] Labeling efficiency was calculated from a pCASL-encoded fast low-angle shot (FLASH) sequence (TR/TE=250/3.5 ms; in plane resolution 182×182 μm2; slice thickness 1.5 mm; flip angle 80° labeling time 200 ms; transit time 0 ms) image of the carotid artery just below the split and 5 mm above the labeling slice. […]

[8] = test system: freezing behavior after rmbTBI; experiment: Contextual fear conditioning test, chronic delayed sildenafil study; type: in vivo, Sprague Dawley rats; conditions: 20 mg/kg daily; 5 months post-blast; day 1 acquisition, days 2-4 extinction
Description: Animal Procedure. […] MRI (magnetic resonance imaging) was performed at 1.5 and 4.5 months post-blast. Fear conditioning test was performed at 5 months post-blast. At the end of the experiment, rats were euthanized and the brain tissue was collected after transcardial perfusion with PBS (FIG. 24). One hemisphere of the brain was snap frozen with liquid nitrogen for brain capillary isolation while another hemisphere of the brain was fixed with 4% paraformaldehyde (PFA). After 48 hours of fixation, the brain tissue was placed into PBS containing 30% sucrose for 72 hours. The sucrose saturated brain tissue was flash frozen in-25 to −35° C. isopentane and stored at −20° C. or proceeded to sectioning. Fear Conditioning Test. Contextual Fear Conditioning paradigm was performed over 4 days. On the acquisition day, rats were placed in a foot shock chamber with a camera within a sound-attenuating chamber and were allowed to explore freely for 2 min. After 2 min, a total of 6 electric shocks (0.75 mA, 2 s duration) were delivered at intervals of 60 s through the testing chamber floor, with shock delivery controlled by Med associates Inc. VideoFreeze™ Video Fear Conditioning Software. […] Video footage was later scored for freezing behavior using Med associates Inc. VideoFreeze™ Video Fear Conditioning Software. […]

[9] = 5 mg/kg low dose daily to day seven
[10] = 20 mg/kg high dose daily to day seven

CCCc1nn(C)c2c(=O)[nH]c(-c3cc(S(=O)(=O)N4CCN(C)CC4)ccc3OCC)nc12 [sildenafil]
mitochondrial branching [1]: decreased | mitochondrial footprint/density [1]: increased | PGC-1α expression in cortex tissue [2, 9]: increased | PGC-1α expression in cortex tissue [2, 10]: increased | PGC-1α expression in hippocampal tissue ([2]; 20 mg/kg high dose daily to day seven, rmbTBI): significantly increased | GFAP expression in cortex tissue [3, 9]: increased | GFAP expression in cortex tissue [3, 10]: increased | TOM20 expression / capillary mitochondrial volume [4]: significantly increased; also recorded: increased volume | ZO-1 expression in cortical capillaries [5]: increased; also recorded: non-significantly increased | correlation between capillary mitochondrial content (OXPHOS) and tight junction integrity (ZO-1) [6]: significant positive correlation; also recorded: strengthens the correlation | regional cerebral blood flow (CBF) in cortex, hippocampus and amygdala [7]: No significant differences | freezing episodes (fear extinction) [8]: significant time-related decrease
